Series [1] deals with RAW264.7 cells (murine macrophage). In words: Inhibition of nitric oxide production in vitro (nitrite by Griess reagent in LPS-stimulated macrophage cells). The settings on record: Mus musculus, LPS 1 μg/mL, 24 hours, test solution 25-200 μM, nitrite by Griess reagent at 550 nm, Mean ± S.E. of 4-6 observations, read-out: IC50 (inhibition of LPS-induced NO production). Type of series: cell-based. The procedure:
• 1. Prepare the cell culture medium DMEM (Dulbecco's modified eagle medium) with 10% fetal calf serum and 10% penicillin-streptomycin. Grow RAW264.7 cells (murine macrophage) in the medium in an incubator at 37° C. under 5% CO2 and saturated water vapor. • 2. Dissolve each test compound in DMSO to make a stock solution. Prepare the test solutions by making suitable dilutions of each stock solution with DMEM. • 3. Add the LPS solution (final concentration=1 μg/mL) and the test solution (final concentration ranging from 25, 50, 100, and up to 200 μM) to individual cell cultures and place in the incubator for 24 hours. • 4. In vitro Nitrite quantification: The production of NO was determined by measuring the accumulated levels of nitrite in culture supernatants with the Griess reagent in LPS-stimulated macrophage cells. • (a) Withdraw 100 μL of the medium from each cell culture and place in a 96-well plate microplate. Add 100 μL of Griess reagent to the medium at room temperature and cover with aluminum foil for 10 minutes. • (b) Measure the absorption by a Dynatech ELISA reader at 550 nm. NaNO2 was used as the standard to calculate the nitrite concentration. • (c) Calculate the % inhibiiton by the following equation: […]
Wherein RM is the reading of medium only, RM+L is the reading of medium with LPS, RM+L+C is the reading of medium with LPS and test compound.
(The Griess reaction detects nitrite, a stable product of nitric oxide.)

Series [2] relates to inducible nitric oxide synthase (iNOS) in rat astrocytes. The settings on record: cited from earlier work.

Molecule `Cc1cc(C(=O)Nc2ccc(NC(=O)c3cc(C)on3)cc2)no1` [Compound 14c] had a melting point of 178 to 180 °C. The IC50 in series [1] turned out to be 0.6 ± 0.01 µM.

`Cc1cc(C(=O)Oc2ccc(OC(=O)c3cc(C)on3)cc2)no1` [Compound 15c]: the melting point fell in the range of 148 to 150 °C. Moreover, the concentration for half-maximal inhibition (IC50) in series [1] came to 7.6 ± 0.4 µM.

For the molecule `C/C(O)=C(\C#N)C(=O)Nc1ccc(C(F)(F)F)cc1` [Compound A771726, reference compound], the 50% inhibitory concentration (IC50) in series [1] amounted to 175 ± 4.7 µM.

For `Cc1oncc1C(=O)Nc1ccc(C(F)(F)F)cc1` [lefunomide, leflunomide], the “inhibition of activation of iNOS” value in series [2] is reported as “inhibit activation of iNOS in rat astrocytes”.

By IC50 is commonly meant the concentration that gives 50% inhibition. As usually defined, the melting point is the temperature of the solid-liquid transition.

The record behind these values is US7291743B2, “Isoxazole derivatives and methods of treating nitric oxide mediated diseases” (Geneblue Corporation, priority 2005, dated 2007).
